For one data set, the system named is CTLL-2 cells. Put plainly: Potency assay based on STAT5 phosphorylation in CTLL-2 cells. Format: cell-based, murine. The note with it: for EC50 (ng/mL) CTLL-2 pSTAT5: Table 2B. On the procedure: In the phospho-STAT5 assay following receptor binding, downstream cell signaling can then activate Signal Transducer and Activator of Transcription 5 (STAT5) through phosphorylation to promote gene expression to induce cell proliferation. The activation of phosho-STAT5 is measured in CTLL-2 cells, a murine T lymphocyte cell line, using the phospho-STAT5/total STAT5 multiplexed assay (Meso Scale Discovery, MD) in response to sample and reference treatment for ˜10 minutes.
One day prior to the assay, CTLL-2 cells were split into fresh growth medium [RPMI 1640 supplemented with 10% FBS, 10% T-cell culture supplement (catalog #354115, Corning, Inc., Tewksbury, MA), 2 mM L-glutamate, and 1 mM sodium pyruvate]. On the day of assay, cells were pre-incubated in assay medium (RPMI 1640 supplemented with 1% FBS, 2 mM L-glutamate, and 1 mM sodium pyruvate) for at least four hours, and then plated in assay medium in a 96-well plate at 50,000 cells/well. Dilutions of the test article were prepared in an appropriate buffer immediately prior to assay. Stimulation of CTLL-2 cells was initiated by the transfer of 25X test article solutions to triplicate wells containing CTLL-2 cells. Plates were incubated at 37° C., 5% CO2 for 10 minutes, and the reaction was stopped by cell lysis. Detection of phospho-STAT5 and total STAT5 protein levels in cell lysates was performed using the MSD Phospho (Tyr694)/Total STATa,b Whole Cell Lysate Kit (Meso Scale Discovery, MD).

The target in data set [1] is IL-15Rα:Fc. Kind of data set: SPR (BIAcore), IL-15Rα:Fc captured by immobilised goat anti-human Fc. (In SPR one partner is held on a chip, and binding of the other changes the refractive index at the surface.)
Chain of IL-15Rα:Fc (Q13261 31-205): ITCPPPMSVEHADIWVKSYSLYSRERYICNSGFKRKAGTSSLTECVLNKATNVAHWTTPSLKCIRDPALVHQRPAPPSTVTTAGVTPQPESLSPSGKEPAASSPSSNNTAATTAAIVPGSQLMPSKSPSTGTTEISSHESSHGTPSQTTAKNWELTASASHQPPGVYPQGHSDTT
The next data set deals with IL-15Rα (Homo sapiens, UniProt Q13261). Kind of data set: Receptor affinity for IL-15Rα by surface plasmon resonance (BIAcore). It counts as binding. The note with it: Table 2B; read-out: IL-15Rα KD. The method, then:
The affinities of IL-15 and exemplary long acting rIL-15 receptor agonists were measured using Surface Plasmon Resonance (“SPR”) using a BIAcore™ SPR system. Briefly, the surface of a Biacore CM5 sensor chip was activated using a 1:1 mixture of NHS: EDC to generate active NHS esters. Goat anti-human Fc antibody was covalently attached to the surface by injecting it for five minutes in 10 mM sodium acetate (pH 4). There were approximately 8000 RU of antibodies bound to the surface. Any remaining NHS ester was then quenched with ethanolamine.
At the initiation of each injection cycle, IL-15-Rα-Fc was captured on a sensor chip channel by a five-minute injection step in PBSP. Typically, 150-200 RU of receptors were bound on the surface.
Long acting rIL-15 receptor agonist test articles were diluted to 10 µM in PBS (containing 0.05% Tween 20 and 0.1 mg/ml BSA). A series of 3-fold dilutions were made and injected onto a sensor chip which was coated with IL-15Rα. The affinities were measured by determining the ka and kd rates separately, and the ratio between kd and ka was used to calculate the Kd values.
The affinities of exemplary long-acting IL-15 receptor agonists (test articles) for the IL-15 α receptor were measured and compared to IL-15. Affinity was measured by BIAcore using IL-15Rα:Fc captured by immobilized anti-Fc.
The test articles were diluted to 10 μM in PBS (containing 0.05% Tween 20 and 0.1 mg/ml BSA). A series of 3-fold dilutions were made and injected onto a sensor chip which was coated with IL-15Rα. The affinities were measured by determining the ka and kd rates separately, and the ratio between ka and kd was used to calculate the […] values.

A further data set concerns human PBMCs. Put plainly: HuPBMC-pStat5 assay (flow cytometry, lymphocyte subpopulations). Format: cell-based. The note with it: for EC50 (ng/ml) pSTAT5 CD56bright NK: Table 3, CD56bright NK cells. On the procedure: The potency of IL-15 or long acting IL-15 R agonists on various human lymphocyte subpopulations was determined by phospho-STAT5 (Y694) dose response assay. Frozen human PBMCs from multiple donors were supplied by AllCells. 1×10^6 cells/100ul were cultured in complete RPMI media for 2 hours and then incubated with the indicated concentrations (10,000ng/ml-0.001ng/ml serial dilutions) of IL-15 or conjugates for 20minutes at 37c. The cells were then fixed (using BD Cytofix) and permeabilized (using 100% pre-chilled methanol) and stained with antibodies for CD3, CD4, CD8, CD4-Tregs (CD4+CD25+Foxp3+), CD56 and phosphorylated STAT5 (Y694) before analysis by flow cytometry. Concentration-response relationships were used to calculate the EC50 values.
Assessment of in-vitro activity of exemplary long-acting IL-15 receptor agonists (e.g., Conjugates 1, 3 and 5) was carried out by investigating signaling in NK cell subsets of human PBMCs as shown in FIGS. 10A (CD56bright cells) and 10B (CD56dim cells). STAT5 phosphorylation was evaluated as previously described for assessing IL-15 signaling activity of the long acting IL-15 receptor agonists.
A second study was conducted to investigate/compare the pStat5 response of human PBMCs obtained from two donors (CD3, CD4, CD8, CD56 (bright and dim) and CD4-Tregs (CD25+Foxp3+)) to IL-15, Conjugate 1 and Conjugate 5. An […] dose response was examined using a 10-fold dilution with a dose range of 0.001-10000 ng/ml and a 20 min stimulation. Each of the test articles was diluted in IL-15 buffer+0.1% BSA.
Assessment of in vitro activity of Conjugate 1 was carried out by investigating NK and CD8 JAK/STAT signaling after treatment of human PBMCs with IL-15 or Conjugate 1 at a dose range of 0.001-10000 ng/ml. STAT5 phosphorylation was assessed as previously described.

A short description of data set [2]: PK (MRT) of long-acting IL-15 receptor agonists (Table 2B). Format: in vivo. The note with it: species not stated.
For data set [3], the target named is IL-15Rα:Fc. Put plainly: SPR (BIAcore), IL-15Rα:Fc captured by immobilised goat anti-human Fc, KD from kd/ka.
In data set [4] the target is IL-15Rα:Fc. Kind of data set: SPR (BIAcore), IL-15Rα:Fc captured by immobilised goat anti-human Fc, test article injected in 3-fold dilutions from 10 µM.

Chain of IL-15Rα (Q13261 31-205 limits assumed): as the sequence (Q13261 31-205) above

As to “recombinant human IL-15: recombinant human IL-15 obtained from PeproTech, served as the control in the CTLL-2 assay [reference compound]”, in the data set on CTLL-2 cells (10-minute treatment, control), the “average EC50, STAT5 phosphorylation in CTLL-2 cells” value is 0.27 ng/mL.

The term Kd denotes the equilibrium constant for the complex coming apart. For the substance “mono-PEG2-RU-ButryALD-20K]-IL-15 (Conjugate 4) (from UniProt P40933 49-162) (ligand)”, the Kd with IL-15Rα:Fc [1] is 0.215 nM.

“[Mono-PEG2-RU-ButryALD-40K]-IL-15 (Conjugate 3) (from UniProt P40933 49-162) (ligand)”: in the data set with IL-15Rα:Fc [1], the Kd worked out at 0.411 nM.

As to “[Mono-PEG2-RU-ButryALD-40K]-IL-15 [Conjugate 3]”, at IL-15Rα, the Kd stood at 0.411 nM. For the same substance, the “EC50 (ng/mL) CTLL-2 pSTAT5” value in the data set on CTLL-2 cells stood at 16.80 ng/mL. Besides, in the data set with human PBMCs, the “EC50 (ng/ml) pSTAT5 CD56bright NK” value worked out at 69.76 ng/ml. The “PK (MRT)” value in data set [2] was 30 h.

Substance “mono-mPEG-ButryALD-40k-IL-15 (Conjugate 5) (from UniProt P40933 49-162) (ligand)” returned a Kd with IL-15Rα:Fc [1] of 0.144 nM.

Turning to “mono-PEG2-RU-ButryALD-20K]-IL-15 [Conjugate 4]”, the Kd in the data set with IL-15Rα came to 0.215 nM. Besides, the “EC50 (ng/mL) CTLL-2 pSTAT5” value with CTLL-2 cells is reported as 6.21 ng/mL.

As to “mono-mPEG-ButryALD-40k-IL-15 [Conjugate 5]”, the Kd in the data set with IL-15Rα is 0.144 nM. In addition, in the data set with CTLL-2 cells, the “EC50 (ng/mL) CTLL-2 pSTAT5” value is on record as 1.45 ng/mL. Moreover, in the data set on human PBMCs (CD3 cells, donor1, 20 min stimulation), the “EC50 (ng/ml)-% pSTAT5 CD3 donor1” value is 1.3 ng/ml. The “EC50 (ng/ml)-% pSTAT5 CD3 donor2” value in the data set on human PBMCs (CD3 cells, donor2, 20 min stimulation) is on record as 1.7 ng/ml. For the same substance, the “EC50 (ng/ml)-% pSTAT5 Treg donor1” value in the data set on human PBMCs (CD4-Treg cells, donor1) is 0.44 ng/ml. Besides, the “EC50 (ng/ml)-% pSTAT5 Treg donor2” value with human PBMCs (CD4-Treg cells, donor2) stood at 0.45 ng/ml. In the data set on human PBMCs (CD4 cells, donor1), the “EC50 (ng/ml)-% pSTAT5 CD4 donor1” value worked out at 1.3 ng/ml. Moreover, in the data set on human PBMCs (CD4 cells, donor2), the “EC50 (ng/ml)-% pSTAT5 CD4 donor2” value stood at 1.14 ng/ml. For the same substance, in the data set on human PBMCs (CD8 cells, donor1), the “EC50 (ng/ml)-% pSTAT5 CD8 donor1” value is 1.4 ng/ml. For the same substance, in the data set with human PBMCs (CD8 cells, donor2), the “EC50 (ng/ml)-% pSTAT5 CD8 donor2” value is 2.5 ng/ml. The “EC50 (ng/ml)-% pSTAT5 CD56bright donor1” value in the data set with human PBMCs (CD56bright cells, donor1) came out at 5.1 ng/ml. In addition, in the data set on human PBMCs (CD56bright cells, donor2), the “EC50 (ng/ml)-% pSTAT5 CD56bright donor2” value is listed as 4.5 ng/ml. Besides, the “EC50 (ng/ml)-% pSTAT5 CD56dim donor1” value with human PBMCs (CD56dim cells, donor1) is 16.48 ng/ml. Besides, the “EC50 (ng/ml)-% pSTAT5 CD56dim donor2” value with human PBMCs (CD56dim cells, donor2) turned out to be 27.12 ng/ml. Moreover, the “EC50 (ng/ml) pSTAT5 CD56bright NK” value with human PBMCs is 32.26 ng/ml. In addition, in the data set on human PBMCs (Table 7 Summary Table, CD3), the “EC50 (ng/ml)-% pSTAT5 CD3” value amounted to 1.3 ng/ml. For the same substance, in the data set with human PBMCs (Table 7 Summary Table, CD4), the “EC50 (ng/ml)-% pSTAT5 CD4” value was 1.3 ng/ml. Further, in the data set on human PBMCs (Table 7 Summary Table, CD8), the “EC50 (ng/ml)-% pSTAT5 CD8” value is 1.4 ng/ml. In the data set on human PBMCs (Table 7 Summary Table, CD56bright), the “EC50 (ng/ml)-% pSTAT5 CD56bright” value stood at 5.1 ng/ml. The “EC50 (ng/ml)-% pSTAT5 CD56dim” value with human PBMCs (Table 7 Summary Table, CD56dim) is 16.48 ng/ml. Moreover, in the data set with human PBMCs (Table 7 Summary Table, Treg), the “EC50 (ng/ml)-% pSTAT5 Treg” value is reported as 0.44 ng/ml. In addition, in the data set on human PBMCs (Table 7 data), the “IL-15 more potent than conjugate in inducing CD3, CD4, CD8 and Treg cells” value is 5-8 fold; the “IL-15 more potent than conjugate in inducing CD56bright and CD56dim cells” value is listed as 40-60 fold. Moreover, the “EC50 (ng/ml)-MFI CD3 donor1” value in the data set with human PBMCs (pSTAT5 MFI, CD3 cells, donor1) is 84.73 ng/mL. In addition, the “EC50 (ng/ml)-MFI CD3 donor2” value with human PBMCs (pSTAT5 MFI, CD3 cells, donor2) was found to be 154.2 ng/mL. Besides, in the data set on human PBMCs (pSTAT5 MFI, CD4-Treg cells, donor1), the “EC50 (ng/ml)-MFI Treg donor1” value was found to be 3.5 ng/mL. Besides, the “EC50 (ng/ml)-MFI Treg donor2” value in the data set on human PBMCs (pSTAT5 MFI, CD4-Treg cells, donor2) stood at 5.4 ng/mL. In the data set with human PBMCs (pSTAT5 MFI, CD4 cells, donor1), the “EC50 (ng/ml)-MFI CD4 donor1” value was determined as 84.21 ng/mL. In addition, the “EC50 (ng/ml)-MFI CD4 donor2” value in the data set on human PBMCs (pSTAT5 MFI, CD4 cells, donor2) is 98.18 ng/mL. Further, the “EC50 (ng/ml)-MFI CD8 donor1” value in the data set with human PBMCs (pSTAT5 MFI, CD8 cells, donor1) came out at 53.7 ng/mL. In addition, the “EC50 (ng/ml)-MFI CD8 donor2” value in the data set with human PBMCs (pSTAT5 MFI, CD8 cells, donor2) came to 204.6 ng/mL. For the same substance, in the data set with human PBMCs (pSTAT5 MFI, CD56bright cells, donor1), the “EC50 (ng/ml)-MFI CD56bright donor1” value came out at 24.86 ng/mL. For the same substance, the “EC50 (ng/ml)-MFI CD56bright donor2” value in the data set with human PBMCs (pSTAT5 MFI, CD56bright cells, donor2) was determined as 56.9 ng/mL. Besides, in the data set on human PBMCs (pSTAT5 MFI, CD56dim cells, donor1), the “EC50 (ng/ml)-MFI CD56dim donor1” value was 97.51 ng/mL. The “EC50 (ng/ml)-MFI CD56dim donor2” value with human PBMCs (pSTAT5 MFI, CD56dim cells, donor2) came to 283.4 ng/mL. Moreover, in data set [2], the “PK (MRT)” value amounted to 25 h.

The term koff denotes the first-order rate constant of dissociation. What is called kon is the rate constant with which the complex forms. Higher therefore signals fast association. In the case of “Recombinant human IL-15 (rIL-15), SEQ ID NO: 1 (from UniProt P40933 49-162) (ligand)”, the Kd in the data set with IL-15Rα:Fc [1] turned out to be 0.258 nM. Also, the Kd with IL-15Rα:Fc [3] is 0.258 nM. Besides, in the data set with IL-15Rα:Fc [4], the koff worked out at 0.000149 s⁻¹ and the kon amounted to 578000 M⁻¹ s⁻¹.

Values taken from patent US20240424115A1, “LONG-ACTING INTERLEUKIN-15 RECEPTOR AGONISTS AND RELATED IMMUNOTHERAPEUTIC COMPOSITIONS AND METHODS” (Nektar Therapeutics, priority 2017, published 2024).
